# Measurements published in ChEMBL document CHEMBL1201862, “PubChem BioAssay data set” (2004).
# Activity calls are given as the source filed them. *1 amine or outer side, *2 acyl side, *3 side chain or, on linkers, in order; H or OH if unused. Where a SMILES comes first, the peptide text is derived from it. Bridges are numbered along the chain shown (N, C = ends). [ ]: non-standard residue; d: D form. The star is where a group is joined. X56 = CC(C)C(C)C(C(=O)[*:2])N(C)[*:1]; Picolinoyl(3-OH) = O=C(c1ncccc1O)*; NMePhg = CN[CH](C(=O)O)c1ccccc1; Hyp = O=C(O)[CH]1C[CH](O)CN1; Sar = CNCC(=O)O
# Columns and labels:
# [1] = molecular target: Nonstructural protein 1 (Influenza A virus, UniProt Q194T2); type: functional, Influenza A virus (A/California/07/2009(H1N1))
# [2] = Luminescence Cell-Based Dose Retest to Confirm Inhibitors of Cancer Stem Cells. [Related pubchem assays (depositor defined):AID2717, AID2721]; type: functional; conditions: Homo sapiens
# [3] = molecular target: T1, Ubiquitin-conjugating enzyme E2 N (Homo sapiens, UniProt P61088); type: functional;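 further: Dose-response confirmation in a TR-FRET assay detecting UBC13-driven polyubiquitin chain formation, inhibition measured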
# T1 sequence (P61088 whole entry): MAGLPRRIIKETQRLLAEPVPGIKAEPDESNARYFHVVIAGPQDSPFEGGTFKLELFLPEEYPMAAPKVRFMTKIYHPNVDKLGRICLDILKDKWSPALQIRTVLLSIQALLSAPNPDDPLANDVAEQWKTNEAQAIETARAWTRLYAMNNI
# [4] = tested on: BJ; experiment: cells; type: functional, cell-based; conditions: Homo sapiens
# [5] = cytotoxicity toward DRD oncogenic fibroblasts, dose response, cell-based, non-viral oncogenic, luminescence (AID 1934); type: functional; conditions: Homo sapiens
# [6] = molecular target: T2, Polyadenylate-binding protein 1 (Homo sapiens, UniProt P11940); experiment: PABP1 MLLE–PAM2 interaction inhibitors, dose response, miRNA deadenylation inhibitor project, biochemical, fluorescence polarization, Cy5-PAM2 peptide, secondary (AID 602260); type: functional; conditions: read-out: IC50_Mean
# [7] = tested on: BJ; experiment: cytotoxicity toward BJ-TERT fibroblasts, dose response, cell-based, RAS-independent, luminescence (AID 1933); type: functional; conditions: Homo sapiens
# [8] = tested on: BJ; experiment: cytotoxicity toward BJ-TERT-LT-ST fibroblasts, dose response, cell-based, RAS-independent, luminescence (AID 1935); type: functional; conditions: Homo sapiens;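 further: BJ fibroblasts immortalized with TERT plus LT and ST oncogenes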
# [9] = molecular target: T2, Polyadenylate-binding protein 1; experiment: PABP1 MLLE–PAM2 binding inhibitor potency, dose response, biochemical, fluorescence polarization, FITC-PAM2 peptide (AID 602259); type: functional; conditions: read-out: IC50_Mean
# [10] = tested on: P388; experiment: cells; type: functional; conditions: Mus musculus
# [11] = tested on: SN12K1; experiment: cells; type: functional; conditions: Homo sapiens
# [12] = tested on: P388/ADR; experiment: cells; type: functional; conditions: Mus musculus
# [13] = molecular target: FAD-linked sulfhydryl oxidase ALR (Homo sapiens, UniProt P55789); experiment: inhibitors of human ALR sulfhydryl oxidase, dose response, biochemical, H2O2 detection, luminescence, cherry-pick (AID 493248)
# [14] = C. albicans growth with fluconazole, confirmation, fluorescence, retest (AID 2467); type: functional, cell-based
# [15] = NIH-3T3 fibroblast cytotoxicity, dose response, cytotoxicity control, cell-based, fluorescence, Alamar Blue, secondary assay (AID 2327); type: functional;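 further: NIH-3T3 mouse fibroblasts cultured with fluconazole at 8 µg/mL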
# [16] = HEp-2 cell cytotoxicity, dose response, cytotoxicity control for RSV inhibitor project, HTS (AID 2410); type: functional; conditions: human respiratory syncytial virus
# [17] = molecular target: Luciferin 4-monooxygenase (Photinus pyralis, UniProt P08659); experiment: firefly luciferase enzyme inhibitors, dose response, biochemical, luminescence (AID 1891)
# [18] = Luminescence Cell-Based Dose Confirmation HTS to Identify Inhibitors of Platelet Dense Granule Release. [Related pubchem assays: 1663 (Primary HTS), 1678 (Summary of Project)]; type: functional
# [19] = molecular target: T3, Corticotropin-releasing factor receptor 2/Corticotropin-releasing factor-binding protein (Homo sapiens, UniProt P24387+Q13324); experiment: activators of CRF receptor 2 with binding protein – uHTS hits, confirmation (AID 602473); type: functional; conditions: read-out: EC50_Mean
# T3 sequence (Q13324 whole entry): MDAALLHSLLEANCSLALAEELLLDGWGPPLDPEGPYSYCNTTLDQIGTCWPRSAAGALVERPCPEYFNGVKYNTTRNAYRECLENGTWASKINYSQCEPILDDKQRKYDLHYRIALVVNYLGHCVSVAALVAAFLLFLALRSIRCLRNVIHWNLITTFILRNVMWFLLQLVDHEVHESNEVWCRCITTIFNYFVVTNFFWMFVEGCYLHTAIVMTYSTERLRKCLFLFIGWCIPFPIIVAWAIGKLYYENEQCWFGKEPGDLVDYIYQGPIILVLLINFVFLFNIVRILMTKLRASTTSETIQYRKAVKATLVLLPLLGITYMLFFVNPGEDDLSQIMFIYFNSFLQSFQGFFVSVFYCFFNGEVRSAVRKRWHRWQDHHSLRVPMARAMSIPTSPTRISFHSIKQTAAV
# T3 sequence (P24387 whole entry): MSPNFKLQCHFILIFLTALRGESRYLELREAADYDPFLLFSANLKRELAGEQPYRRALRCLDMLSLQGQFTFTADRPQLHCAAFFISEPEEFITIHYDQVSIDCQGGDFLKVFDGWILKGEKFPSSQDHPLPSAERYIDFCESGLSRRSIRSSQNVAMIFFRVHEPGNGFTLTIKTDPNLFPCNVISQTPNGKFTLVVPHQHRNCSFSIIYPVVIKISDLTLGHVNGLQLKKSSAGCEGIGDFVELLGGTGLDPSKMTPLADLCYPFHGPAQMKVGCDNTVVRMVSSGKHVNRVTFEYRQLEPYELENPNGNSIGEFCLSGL
# [20] = tested on: H9c2; experiment: cells; type: functional, cell-based; conditions: Rattus norvegicus, H9c2, Myocardium;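 further: confirmatory concentration-response retest of ultra-high-throughput screening hits for modulation of myocardial damage; cell death induced by hydrogen peroxide oxidative stress; compound pretreatment for 60 min then peroxide exposure for 2 h; potency is for protecting the cells against peroxide damage rather than for killing them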
# [21] = molecular target: Cytochrome P450 2D6 (Homo sapiens, UniProt P10635);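 further: CYP2D6 member of a cytochrome P450 panel assay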
# [22] = molecular target: Large T antigen (Simian virus 40, UniProt P03070); type: functional, Betapolyomavirus macacae;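 further: Confirmatory-stage PubChem screen for compounds that inhibit SV40 T antigen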
# Large T antigen, sequence (P03070 whole entry): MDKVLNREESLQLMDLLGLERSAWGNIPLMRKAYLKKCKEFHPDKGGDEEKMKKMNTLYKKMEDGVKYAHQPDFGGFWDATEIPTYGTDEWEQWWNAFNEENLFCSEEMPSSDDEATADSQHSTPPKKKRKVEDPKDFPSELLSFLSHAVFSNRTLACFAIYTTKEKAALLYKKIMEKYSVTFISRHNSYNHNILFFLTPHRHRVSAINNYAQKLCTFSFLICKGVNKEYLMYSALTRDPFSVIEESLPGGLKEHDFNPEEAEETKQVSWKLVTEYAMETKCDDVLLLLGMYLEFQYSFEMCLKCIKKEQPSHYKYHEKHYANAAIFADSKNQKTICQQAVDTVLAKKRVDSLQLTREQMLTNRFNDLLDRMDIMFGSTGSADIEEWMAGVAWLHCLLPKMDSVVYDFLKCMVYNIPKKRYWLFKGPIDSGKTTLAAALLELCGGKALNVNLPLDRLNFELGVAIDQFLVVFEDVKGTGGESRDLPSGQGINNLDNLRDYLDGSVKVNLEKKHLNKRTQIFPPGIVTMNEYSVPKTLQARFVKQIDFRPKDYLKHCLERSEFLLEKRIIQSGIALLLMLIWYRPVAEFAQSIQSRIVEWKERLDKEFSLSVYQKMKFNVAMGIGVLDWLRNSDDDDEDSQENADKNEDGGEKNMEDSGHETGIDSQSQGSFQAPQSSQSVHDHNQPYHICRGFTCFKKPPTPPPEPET
# T2 sequence (P11940 whole entry): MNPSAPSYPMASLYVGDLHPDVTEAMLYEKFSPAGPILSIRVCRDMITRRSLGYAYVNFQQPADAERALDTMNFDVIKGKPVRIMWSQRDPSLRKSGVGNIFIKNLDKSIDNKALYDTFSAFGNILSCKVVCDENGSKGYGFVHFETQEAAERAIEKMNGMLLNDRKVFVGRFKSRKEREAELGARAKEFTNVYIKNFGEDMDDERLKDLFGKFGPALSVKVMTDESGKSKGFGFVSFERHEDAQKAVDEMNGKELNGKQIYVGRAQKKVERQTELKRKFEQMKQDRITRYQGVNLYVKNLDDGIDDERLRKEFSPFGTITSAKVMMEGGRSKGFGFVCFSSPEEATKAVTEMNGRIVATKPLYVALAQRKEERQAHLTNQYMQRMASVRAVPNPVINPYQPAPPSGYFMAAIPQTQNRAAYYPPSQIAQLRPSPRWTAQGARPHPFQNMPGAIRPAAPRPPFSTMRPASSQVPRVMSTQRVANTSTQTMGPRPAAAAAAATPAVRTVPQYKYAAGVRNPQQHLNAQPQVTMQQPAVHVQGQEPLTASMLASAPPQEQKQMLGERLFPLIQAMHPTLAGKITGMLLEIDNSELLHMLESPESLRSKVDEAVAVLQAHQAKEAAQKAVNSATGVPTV
# Luciferin 4-monooxygenase, sequence (P08659 whole entry): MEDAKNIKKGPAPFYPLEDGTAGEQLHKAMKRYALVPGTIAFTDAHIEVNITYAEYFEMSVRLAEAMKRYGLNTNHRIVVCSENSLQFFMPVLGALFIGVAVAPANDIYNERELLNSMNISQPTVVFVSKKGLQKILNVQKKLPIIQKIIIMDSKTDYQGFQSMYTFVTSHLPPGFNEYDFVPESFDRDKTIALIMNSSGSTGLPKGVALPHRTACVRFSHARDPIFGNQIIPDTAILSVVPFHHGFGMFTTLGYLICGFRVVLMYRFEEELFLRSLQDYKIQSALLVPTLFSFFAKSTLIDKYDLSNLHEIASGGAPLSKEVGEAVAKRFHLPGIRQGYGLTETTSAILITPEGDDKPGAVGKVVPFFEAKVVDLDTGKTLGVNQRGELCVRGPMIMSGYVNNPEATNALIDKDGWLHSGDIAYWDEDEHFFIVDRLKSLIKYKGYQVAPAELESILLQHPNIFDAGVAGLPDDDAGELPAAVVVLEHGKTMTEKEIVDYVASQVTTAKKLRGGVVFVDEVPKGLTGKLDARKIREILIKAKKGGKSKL
# Nonstructural protein 1, sequence (Q194T2 whole entry): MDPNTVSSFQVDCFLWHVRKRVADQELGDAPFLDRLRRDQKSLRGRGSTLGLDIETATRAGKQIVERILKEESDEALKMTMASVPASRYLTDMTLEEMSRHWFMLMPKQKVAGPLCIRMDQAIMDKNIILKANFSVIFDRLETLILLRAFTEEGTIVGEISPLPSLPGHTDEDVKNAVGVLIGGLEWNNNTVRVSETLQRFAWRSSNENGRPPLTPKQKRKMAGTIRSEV
# FAD-linked sulfhydryl oxidase ALR, sequence (P55789 whole entry): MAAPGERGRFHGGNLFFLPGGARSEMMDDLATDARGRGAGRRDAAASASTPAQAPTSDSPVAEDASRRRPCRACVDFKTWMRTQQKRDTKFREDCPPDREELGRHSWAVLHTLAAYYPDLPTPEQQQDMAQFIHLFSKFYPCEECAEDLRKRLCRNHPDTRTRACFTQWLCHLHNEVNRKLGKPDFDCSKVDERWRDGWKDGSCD
# Cytochrome P450 2D6, sequence (P10635 whole entry): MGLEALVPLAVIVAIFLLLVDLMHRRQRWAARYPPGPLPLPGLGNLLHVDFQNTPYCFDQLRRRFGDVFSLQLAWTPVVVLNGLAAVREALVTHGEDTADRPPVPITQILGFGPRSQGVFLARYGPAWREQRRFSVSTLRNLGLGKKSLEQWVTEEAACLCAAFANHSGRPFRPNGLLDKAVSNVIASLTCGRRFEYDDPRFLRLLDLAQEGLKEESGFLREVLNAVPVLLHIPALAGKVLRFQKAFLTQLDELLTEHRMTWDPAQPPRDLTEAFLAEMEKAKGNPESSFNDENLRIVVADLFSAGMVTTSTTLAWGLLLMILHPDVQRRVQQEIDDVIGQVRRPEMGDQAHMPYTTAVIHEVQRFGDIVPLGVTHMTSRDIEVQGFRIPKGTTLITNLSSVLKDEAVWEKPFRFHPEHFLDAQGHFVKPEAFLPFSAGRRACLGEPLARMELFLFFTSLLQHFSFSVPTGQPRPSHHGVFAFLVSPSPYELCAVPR
smiles,measurement,setting,value
COc1ccc(Cc2nnc(N/N=C/c3ccc(O)cc3O)nc2O)cc1OC,IC50,[1],1.78 µM (active)
same,AC50,[2],8.28 µM (active)
Cc1ccc(S(=O)(=O)CCc2nnc(NC(=O)c3ccccn3)s2)cc1,IC50,[1],10.2 µM (active)
CCOc1ccccc1-c1nc(C(N)=O)c2nc(O)n(-c3ccc(F)cc3)c2n1,IC50,[3],> 20 µM (inactive)
NC(=O)c1cc2c3ccccc3ccn2c1-c1ccccc1,EC50,[4],27.4 µM (inconclusive)
same,EC50,[5],0.244 µM (active)
same,IC50,[6],> 66 µM (inactive)
same,EC50,[7],0.305 µM (active)
same,EC50,[8],5.08 µM (inconclusive)
same,IC50,[9],32.2 µM (inactive)
COc1ccc(C2C3CCCC(C3=O)C(c3ccc(OC)cc3)N2N=O)cc1 (configuration not stated),GI50,[10],19.9 µM (inactive)
same,GI50,[11],30.5 µM (inactive)
same,GI50,[12],17.9 µM (inactive)
Cn1c(N)c(N2CCN(c3ccccc3)CC2)c(=O)[nH]c1=O,AC50,[13],3.9 µM (active)
O=C1/C(=C\c2cccnc2)SC(=S)N1C1CCS(=O)(=O)C1 (configuration not stated),EC50,[4],> 150 µM (inconclusive)
same,EC50,[5],20.4 µM (active)
same,EC50,[7],22.5 µM (active)
same,EC50,[8],> 150 µM (not active)
same,EC50,[14],0.479 µM (active)
Cc1nc(C#N)c(N/N=C/c2c(F)cccc2Cl)o1,AC50,[13],2.54 µM (active)
CCOC(=O)C(CC(C)C)NC(=O)C(Cc1ccc(N(CCCl)CCCl)cc1)NC(C)=O (configuration not stated),GI50,[10],1.93 µM (inactive)
same,GI50,[11],2.2 µM (inactive)
same,GI50,[12],1.91 µM (inactive)
CSCC[C@@H]1C(=O)N(C)[C@H](C(C)(C)C)N1C(=O)c1ccccc1,GI50,[10],> 100 µM (inactive)
same,GI50,[11],> 100 µM (inactive)
Cc1cc(Cl)n2nc(C)c(-c3ccc(Cl)cc3)c2n1,EC50,[15],> 150 µM (inactive)
same,EC50,[14],> 38 µM (not active)
same,CC50,[16],27.6 µM (active)
COc1ccc2[nH]cc(/C=C(/C)c3ccncc3)c2c1,GI50,[10],3.07 µM (inactive)
same,GI50,[11],16 µM (inactive)
same,GI50,[12],2.99 µM (inactive)
COc1ccc(NC(=O)CCS(=O)(=O)c2ccc3nc(C)sc3c2)cc1OC,EC50,[17],> 112 µM (not active)
same,EC50,[18],> 112 µM (not active)
CCCCC#CS(=O)(=O)C(F)(F)F,GI50,[10],19.7 µM (inactive)
same,GI50,[11],51.9 µM (inactive)
same,GI50,[12],27.7 µM (inactive)
Cc1cc(C)cc(NC2=C(N)C(=O)c3ccccc3C2=O)c1,IC50,[1],37.3 µM (active)
Cc1ccc(OC(=O)COc2ccccc2C)c(-n2nc3ccccc3n2)c1,IC50,[6],> 66 µM (inactive)
same,IC50,[9],> 66 µM (inactive)
O=C(NCCCN1CCOCC1)c1ccc2c(=O)n(Cc3cccc(Br)c3)c(=S)[nH]c2c1,IC50,[3],> 20 µM (inactive)
CCc1ccc(C(=O)Nn2c(C)nc3ccccc3c2=O)cc1,IC50,[3],> 20 µM (inactive)
CCCSCC(P(=O)(O)O)P(=O)(O)O.NC1CCCCC1,GI50,[10],> 100 µM (inactive)
same,GI50,[11],> 100 µM (inactive)
same,GI50,[12],> 100 µM (inactive)
CC1CCc2sc(-c3nnc(S)o3)cc2C1 (configuration not stated),AC50,[13],1.2 µM (active)
COC(=O)c1c(C)[nH]c(O)c1/C=N/c1ccc(Oc2ccccc2)cc1,EC50,[19],> 53 µM (inactive)
same,IC50,[20],> 79 µM (inactive)
COC(=O)c1sccc1NC(=O)Nc1ccc(F)cc1,EC50,[17],0.535 µM (active)
same,EC50,[18],1.67 µM (active)
CC(C)CC1NC(=O)C(NC(=O)c2ncccc2O)C(C)OC(=O)C(c2ccccc2)N(C)C(=O)C(C)NC(=O)C(C(C)C(C)C)N(C)C(=O)CN(C)C(=O)C2CC(O)CN2C1=O (configuration not stated) ({Picolinoyl(3-OH)}-TL[Hyp][Sar][X56]A[NMePhg]; ester 1-C; configuration not given here),GI50,[10],6.21 µM (inactive)
same,GI50,[11],51.3 µM (inactive)
same,GI50,[12],> 109 µM (inactive)
Cc1cc(OC(=O)c2ccco2)c2c3c(c(=O)oc2c1)CCCC3,EC50,[15],> 160 µM (inactive)
same,EC50,[14],5.16 µM (active)
same,CC50,[16],33.1 µM (active)
COc1cc(C(=O)Nc2nc3ccc(S(C)(=O)=O)cc3s2)cc(OC)c1C,IC50,[3],> 20 µM (inactive)
COc1ccc(C(C(=O)NCc2ccccc2)N(Cc2cccs2)C(=O)c2cnccn2)cc1 (configuration not stated),AC50,[21],31.6 µM (inconclusive)
same,IC50,[20],> 79 µM (inactive)
N#C/C(=C\c1ccc(O)cc1)C(N)=O,GI50,[10],> 100 µM (inactive)
same,GI50,[11],> 100 µM (inactive)
same,GI50,[12],> 100 µM (inactive)
CCOC(=O)c1cccc(NS(=O)(=O)c2c(C(=O)N3CCCCCC3)c(C)n(C)c2C)c1,IC50,[3],> 20 µM (inactive)
O=C(C1CCCN(S(=O)(=O)c2cccc3nonc23)C1)N1CCN(c2ccccc2Cl)CC1 (configuration not stated),IC50,[1],> 100 µM (active)
Cc1ccc(NC(=O)NNC(=O)c2cc3ccccc3cc2O)cc1C,EC50,[15],> 160 µM (inactive)
same,EC50,[14],> 38 µM (not active)
O=C(NNC(=O)C1CCN(S(=O)(=O)c2ccc(Cl)cc2)CC1)c1ccc(S(=O)(=O)N2CCCCC2)cc1,IC50,[3],> 20 µM (inactive)
CC(=O)Nc1cccc(NC(=O)CSc2nn3c(=O)c(C)nnc3s2)c1,IC50,[1],9.96 µM (active)
OC(CNCc1cccc(Br)c1)c1ccccc1 (configuration not stated),EC50,[17],> 112 µM (not active)
same,EC50,[18],20.7 µM (active)
COc1nnc(-c2ccccc2)s1,IC50,[6],> 66 µM (inactive)
same,IC50,[9],> 66 µM (inactive)
O=C(CSc1nc(-c2ccccc2)cs1)NCc1ccco1,EC50,[17],> 112 µM (not active)
same,EC50,[18],> 112 µM (not active)
CCC(C)N(C(=O)CSc1ccc(NC(C)=O)cc1)C1CCS(=O)(=O)C1 (configuration not stated),IC50,[6],> 66 µM (inactive)
same,IC50,[9],> 66 µM (inactive)
CN(C)c1ccc(/C=N/NC(=O)c2ccn(C)n2)cc1,AC50,[13],25.6 µM (active)
COc1cc(OC)c2c(-c3ccccc3)cc(=O)oc2c1C(CCN1CCCC(C)C1)c1ccc(N(C)C)cc1 (configuration not stated),IC50,[1],11.4 µM (active)
O=C(N/N=C/c1ccc(O)c(O)c1)C1CC1,AC50,[13],0.127 µM (active)
same,IC50,[22],5.55 µM (active)
COC1/C=C\C=C(/C)C(=O)NC2=CC(=O)C=C(C2=O)C(OC)C(C)CC(OC)C(OC)C(C)/C=C(/C)C1OC(N)=O (configuration not stated),GI50,[10],0.0166 µM (active)
same,GI50,[11],1.69 µM (inactive)
same,GI50,[12],1.29 µM (inactive)
